Data taken from patent US7311901B2, “Amphiphilic block copolymer and polymeric composition comprising the same for drug delivery” (Samyang Corporation, priority 2003, dated 2007).

Test system: Taxol®-pretreated cancer cells
Assay: IC50 of paclitaxel for Taxol®-pretreated cancer cells
Type: cell-based, human
Conditions: Taxol®-pretreated vs native cancer cells; data not shown

## CC(=O)O[C@H]1C(=O)[C@@]2(C)[C@H]([C@H](OC(=O)c3ccccc3)[C@]3(O)C[C@H](OC(=O)[C@H](O)[C@@H](NC(=O)c4ccccc4)c4ccccc4)C(C)=C1C3(C)C)[C@]1(OC(C)=O)CO[C@@H]1C[C@@H]2O [paclitaxel]
  IC50 of paclitaxel: increased significantly
